Test results taken from patent US20160024086A1, “AZAINDOLE RETINOIC ACID RECEPTOR-RELATED ORPHAN RECEPTOR MODULATORS AND USES THEREOF” (INNOV17 LLC, priority 2014, published 2016).

Legend:
Type in all cases: cell-based
Details in all cases: 72 h; human CD4+ T cells under TH17-polarizing conditions, 3 days, supernatant ELISA
IL-17A = experiment: Human TH17 cytokine inhibition as measured by ELISA (IL-17A)
Method: (§1) Human TH17 Cytokine Inhibition as Measured by ELISA
(§2) Peripheral blood mononuclear cells (PBMCs) were sourced from freshly prepared leukocyte enriched plasma (buffy coat) from healthy donors (New York Blood Center). PBMCs were isolated by density gradient centrifugation using Ficoll-Paque™ PLUS (GE Healthcare). Human CD4+ T cells were seeded into 96-well plates (5×10^4 cells/well) and activated with plate-bound anti-human (h)-CD3 antibody and soluble h-aCD28 (both at 1 ug/ml; eBioscience) and differentiated into TH17 cells with 20 ng/mL h-IL-6, 5 ng/mL h-TGF-β1, 10 ng/mL h-IL-23 (eBioscience) and 10 ng/mL IL-1β (Miltenyi Biotec) in serum-free TexMACS Medium (Miltenyi Biotec) supplemented with 1% Penicillin/Streptomycin (Lonza) for 3 days. CD4+ T cells propagated under TH17-polarizing conditions were cultured in the presence or absence of various concentrations of compounds with a final concentration of 0.1% DMSO. Supernatants were collected and stored at −20° C. until assayed for IL-17A, IL-17F and IL-21 levels by “Ready-Set-Go” ELISA kits (eBioscience) as per manufacturer's instructions. Endpoint absorbance was read at 450 nm using a microplate reader (Perkin Elmer).

IL-17F = experiment: Human TH17 cytokine inhibition as measured by ELISA (IL-17F)
Method: as §1, §2

IL-22 = experiment: Human TH17 cytokine inhibition as measured by ELISA (IL-22)
IL-21 = experiment: Human TH17 cytokine inhibition as measured by ELISA (IL-21)
Method: as §1, §2

IC50 (IL-17A) [µM] | IC50 (IL-17F) [µM] | IC50 (IL-22) [µM] | IC50 (IL-21) [µM] | SMILES
< 10 | < 10 | < 10 | < 10 | C[C@H]1C[C@H](Cn2ccc3nc(-c4cn[nH]c4)ccc32)CN1C(=O)CCc1ccccc1 (racemic) [Example 40, rac.-trans-1-(4-((5-(1H-pyrazol-4-yl)-1H-pyrrolo[3,2-b]pyridin-1-yl)methyl)-2-methylpyrrolidin-1-yl)-3-phenylpropan-1-one]
< 10 | < 10 | – | < 10 | C[C@@H]1C[C@H](Cn2ccc3nc(-c4cn[nH]c4)ccc32)CN1C(=O)CCc1ccccc1 (racemic) [Example 41, rac.-cis-1-(4-((5-(1H-pyrazol-4-yl)-1H-pyrrolo[3,2-b]pyridin-1-yl)methyl)-2-methylpyrrolidin-1-yl)-3-phenylpropan-1-one]
< 10 | < 10 | – | < 10 | O=C(CCc1ccccc1)N1CCC(Cn2ccc3nc(-c4cn[nH]c4)ccc32)CC1 [Example 3, 1-(4-((5-(1H-pyrazol-4-yl)-1H-pyrrolo[3,2-b]pyridin-1-yl)methyl)piperidin-1-yl)-3-phenylpropan-1-one]
< 10 | < 10 | – | < 10 | O=C(CC1CCCCC1)N1CCC(Cn2ccc3nc(-c4cn[nH]c4)ccc32)CC1 [Example 4, 1-(4-((5-(1H-pyrazol-4-yl)-1H-pyrrolo[3,2-b]pyridin-1-yl)methyl)piperidin-1-yl)-2-cyclohexylethanone]
< 10 | < 10 | – | < 10 | O=C(Cc1ccccc1)N1CCC(Cn2ccc3nc(-c4cn[nH]c4)ccc32)CC1 [Example 7, 1-(4-((5-(1H-pyrazol-4-yl)-1H-pyrrolo[3,2-b]pyridin-1-yl)methyl)piperidin-1-yl)-2-phenylethanone]
< 10 | < 10 | – | < 10 | CC1(C)CC(Cn2ccc3nc(-c4cn[nH]c4)ccc32)CN1C(=O)c1ccccc1 (stereo not drawn) [Example 19, (4-((5-(1H-pyrazol-4-yl)-1H-pyrrolo[3,2-b]pyridin-1-yl)methyl)-2,2-dimethylpyrrolidin-1-yl)(phenyl)methanone]
< 10 | < 10 | < 10 | < 10 | O=S(=O)(c1ccccc1)N1CCC(Cn2ccc3nc(-c4cn[nH]c4)ccc32)CC1 [Example 30, 1-((1-(phenylsulfonyl)piperidin-4-yl)methyl)-5-(1H-pyrazol-4-yl)-1H-pyrrolo[3,2-b]pyridine]
< 10 | < 10 | < 10 | < 10 | O=S(=O)(Cc1ccccc1)N1CCC(Cn2ccc3nc(-c4cn[nH]c4)ccc32)CC1 [Example 32, 1-((1-(benzylsulfonyl)piperidin-4-yl)methyl)-5-(1H-pyrazol-4-yl)-1H-pyrrolo[3,2-b]pyridine]
